According to patent publication US5190741A, “Agents for diagnosing and treating melanomas, aromatic halogenated derivatives usable as such agents and their preparation” (Institut National de la Sante et de la Recherche Medicale …, priority 1989, dated 1993):

Experiments:
[1] = test system: Dau amelanic human melanoma; experiment: Tissue distribution in Swiss nu/nu SSCUP mice bearing Dau; assay type: in vivo
Procedure: The study of the tissue distribution of the ^125 I labelled compounds was performed in mice bearing grafted melanomas (cf. autoradiograms above). […] The animals are sacrificed at different time intervals of 1 to 24 hours after the injection. The blood is collected and the principal organs are excised. Aliquots are weighed and the radioactivity of the samples is measured in a […] 1191 counter (analytic tracer). The counting yield for iodine 125 is 60%. The results are expressed: as a percentage of the injected dose bound per g of tissue (% ID/g); in the form of the ratios [formula] This ratio reflects more precisely the selectivity of a molecule for an organ (tables 2, 4, 6, 8, 10 and 12).

[2] = LD50 determination, i.v. (Karber and Behrens); settings: mouse, in vivo, iv
From the text: (§1) The determination of the LD50 is made in the mouse after i.v. injection of the molecules according to the methodology described by Karber and Behrens.
(§2) 6 weeks old male nu/nu SSCUP nude mice, […]

[3] = test system: 6 weeks old male nu/nu SSCUP nude mice; experiment: LD50 determination, i.v. (Karber and Behrens); settings: mouse, in vivo, iv
From the text: as §1, §2

In the case of `CCNCCNC(=O)c1ccc(I)cc1` [Derivative B, N-(2-ethylaminoethyl) 4-iodo benzamide], the “intratumoral concentrations compared with A” value ([1]; 4 to 6 h, Dau) is reported as “slightly higher”, the brain/blood ratio ([1]; 1 h) is reported as 1,44 ± 0,069 and the eye/blood ratio ([1]; 1 h) is reported as 0,57 ± 0,011. For the same compound, the intestine/blood ratio ([1]; 1 h) was 3,44 ± 0,231, the kidney/blood ratio ([1]; 1 h) was 9,10 ± 0,286 and the liver/blood ratio ([1]; 1 h) was 5,56 ± 0,225. The lungs/blood ratio ([1]; 1 h) was 6 ± 0,353, the muscle/blood ratio ([1]; 1 h) was 1,17 ± 0,040 and the pancreas/blood ratio ([1]; 1 h) was 3,20 ± 0,099. The plasma/blood ratio ([1]; 1 h) was 0,80 ± 0,017, the spleen/blood ratio ([1]; 1 h) was 2,84 ± 0,091 and the stomach/blood ratio ([1]; 1 h) was 2,66 ± 0,101. The submaxillary glands/blood ratio ([1]; 1 h) was 4,82 ± 0,285, the tumor/blood ratio ([1]; 1 h) was 1,33 ± 0,015 and the brain/blood ratio ([1]; 2 h) was 1,43 ± 0,261. The eye/blood ratio ([1]; 2 h) was 0,55 ± 0,052, the intestine/blood ratio ([1]; 2 h) was 2,87 ± 0,34 and the kidney/blood ratio ([1]; 2 h) was 7,00 ± 1,03. For the same compound, the liver/blood ratio ([1]; 2 h) was 3,62 ± 0,68, the lungs/blood ratio ([1]; 2 h) was 6,33 ± 1,166 and the muscle/blood ratio ([1]; 2 h) was 0,98 ± 0,182. For the same compound, the pancreas/blood ratio ([1]; 2 h) was 2,42 ± 0,36, the plasma/blood ratio ([1]; 2 h) was 0,89 ± 0,068 and the spleen/blood ratio ([1]; 2 h) was 2,31 ± 0,36. The stomach/blood ratio ([1]; 2 h) was 3,40 ± 0,694, the submaxillary glands/blood ratio ([1]; 2 h) was 4,48 ± 0,220 and the tumor/blood ratio ([1]; 2 h) was 1,39 ± 0,103. For the same compound, the brain/blood ratio ([1]; 4 h) was 2,21 ± 0,304, the eye/blood ratio ([1]; 4 h) was 0,71 ± 0,056 and the intestine/blood ratio ([1]; 4 h) was 4,08 ± 0,599. The kidney/blood ratio ([1]; 4 h) was 8,03 ± 0,813, the liver/blood ratio ([1]; 4 h) was 5,21 ± 0,519 and the lungs/blood ratio ([1]; 4 h) was 8,77 ± 0,838. For the same compound, the muscle/blood ratio ([1]; 4 h) was 1,24 ± 0,153, the pancreas/blood ratio ([1]; 4 h) was 2,70 ± 0,300 and the plasma/blood ratio ([1]; 4 h) was 0,94 ± 0,058. The spleen/blood ratio ([1]; 4 h) was 2,07 ± 0,256, the stomach/blood ratio ([1]; 4 h) was 4,34 ± 0,924 and the submaxillary glands/blood ratio ([1]; 4 h) was 5,44 ± 0,297. The tumor/blood ratio ([1]; 4 h) was 2,68 ± 0,757, the brain/blood ratio ([1]; 6 h) was 0,44 ± 0,060 and the eye/blood ratio ([1]; 6 h) was 0,36 ± 0,023. For the same compound, the intestine/blood ratio ([1]; 6 h) was 1,97 ± 0,112, the kidney/blood ratio ([1]; 6 h) was 2,01 ± 0,252 and the liver/blood ratio ([1]; 6 h) was 1,43 ± 0,439. For the same compound, the lungs/blood ratio ([1]; 6 h) was 1,82 ± 0,187, the muscle/blood ratio ([1]; 6 h) was 0,24 ± 0,056 and the pancreas/blood ratio ([1]; 6 h) was 0,76 ± 0,050. The plasma/blood ratio ([1]; 6 h) was 1,16 ± 0,016, the spleen/blood ratio ([1]; 6 h) was 0,62 ± 0,045 and the stomach/blood ratio ([1]; 6 h) was 3,78 ± 0,400. For the same compound, the submaxillary glands/blood ratio ([1]; 6 h) was 5,16 ± 0,853, the tumor/blood ratio ([1]; 6 h) was 0,65 ± 0,025 and the brain/blood ratio ([1]; 8 h) was 1,31 ± 0,180. The eye/blood ratio ([1]; 8 h) was 0,60 ± 0,040, the intestine/blood ratio ([1]; 8 h) was 3,30 ± 0,269 and the kidney/blood ratio ([1]; 8 h) was 3,72 ± 0,573. The liver/blood ratio ([1]; 8 h) was 6,03 ± 0,678, the lungs/blood ratio ([1]; 8 h) was 3,69 ± 0,585 and the muscle/blood ratio ([1]; 8 h) was 0,74 ± 0,216. The pancreas/blood ratio ([1]; 8 h) was 1,22 ± 0,151, the plasma/blood ratio ([1]; 8 h) was 0,19 ± 0,020 and the spleen/blood ratio ([1]; 8 h) was 1,28 ± 0,158. For the same compound, the stomach/blood ratio ([1]; 8 h) was 5,35 ± 0,355, the submaxillary glands/blood ratio ([1]; 8 h) was 3,65 ± 0,266 and the tumor/blood ratio ([1]; 8 h) was 1,17 ± 0,314. The brain/blood ratio ([1]; 12 h) was 0,74 ± 0,072, the eye/blood ratio ([1]; 12 h) was 0,88 ± 0,081 and the intestine/blood ratio ([1]; 12 h) was 3,20 ± 0,502. The kidney/blood ratio ([1]; 12 h) was 5,46 ± 0,217, the liver/blood ratio ([1]; 12 h) was 13,34 ± 0,462 and the lungs/blood ratio ([1]; 12 h) was 3,04 ± 0,401. For the same compound, the muscle/blood ratio ([1]; 12 h) was 0,45 ± 0,111, the pancreas/blood ratio ([1]; 12 h) was 5 ± 0,310 and the plasma/blood ratio ([1]; 12 h) was 0,16 ± 0,037. The spleen/blood ratio ([1]; 12 h) was 3,68 ± 0,493, the stomach/blood ratio ([1]; 12 h) was 7,03 ± 0,728 and the submaxillary glands/blood ratio ([1]; 12 h) was 2,52 ± 0,236. For the same compound, the tumor/blood ratio ([1]; 12 h) was 1,11 ± 0,059, the brain/blood ratio ([1]; 24 h) was 0,22 ± 0,029 and the eye/blood ratio ([1]; 24 h) was 0,94 ± 0,213. For the same compound, the intestine/blood ratio ([1]; 24 h) was 1,16 ± 0,141, the kidney/blood ratio ([1]; 24 h) was 4,64 ± 0,328 and the liver/blood ratio ([1]; 24 h) was 21,88 ± 1,493. For the same compound, the lungs/blood ratio ([1]; 24 h) was 1,72 ± 0,182, the muscle/blood ratio ([1]; 24 h) was 0,27 ± 0,043 and the pancreas/blood ratio ([1]; 24 h) was 1,40 ± 0,120. For the same compound, the plasma/blood ratio ([1]; 24 h) was 1,07 ± 0,154, the spleen/blood ratio ([1]; 24 h) was 11,17 ± 1,75 and the stomach/blood ratio ([1]; 24 h) was 2,28 ± 0,165. For the same compound, the submaxillary glands/blood ratio ([1]; 24 h) was 1,81 ± 0,169, the tumor/blood ratio ([1]; 24 h) was 0,79 ± 0,092 and the “tumor/blood ratios compared with A” value ([1]; Dau) was “not significantly different”.

For `CCN(CC)CCNC(=O)c1ccc(I)cc1` [Derivative A, N-(2-diethylaminoethyl) 4-iodo benzamide], the LD50 [2] was 90 mg/kg, the “LD 0” value [3] was 60 mg/kg and the “LD 100” value [3] was 150 mg/kg.
